Measurements taken from PubChem BioAssay (NCI).
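Briefly, cells in 96-well plates were exposed to five compound concentrations for 48 h, and endpoints were estimated by linear interpolation. GI50 marks 50% less growth. TGI: concentration producing complete growth inhibition.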

Tests used:
Experiment in all cases: growth of human tumour cells (NCI), 48 h
IGROV1 ovarian = system: IGROV1 ovarian
MDA-MB-231 breast = system: MDA-MB-231 breast
CAKI-1 renal = system: CAKI-1 renal
DU-145 prostate = system: DU-145 prostate
LOX IMVI melanoma = system: LOX IMVI melanoma
SK-MEL-2 melanoma = system: SK-MEL-2 melanoma
NCI/ADR-RES ovarian = system: NCI/ADR-RES ovarian
NCI-H23 lung = system: NCI-H23 lung
HOP-92 NSCLC = system: HOP-92 NSCLC
KM12 colon = system: KM12 colon

Compound	GI50 (IGROV1 ovarian)	TGI (IGROV1 ovarian)	GI50 (MDA-MB-231 breast)	TGI (MDA-MB-231 breast)	GI50 (CAKI-1 renal)	TGI (CAKI-1 renal)	GI50 (DU-145 prostate)	TGI (DU-145 prostate)	GI50 (LOX IMVI melanoma)	TGI (LOX IMVI melanoma)	GI50 (SK-MEL-2 melanoma)	TGI (SK-MEL-2 melanoma)	GI50 (NCI/ADR-RES ovarian)	TGI (NCI/ADR-RES ovarian)	GI50 (NCI-H23 lung)	TGI (NCI-H23 lung)	GI50 (HOP-92 NSCLC)	TGI (HOP-92 NSCLC)	GI50 (KM12 colon)	TGI (KM12 colon)
O=C1OCC2=C1C(c1ccccc1)c1cc3c(cc1N2)OCO3 (centres undefined)	0.0816 µM	50.2 µM	0.046 µM	> 74.7 µM	0.439 µM	> 62.9 µM	0.0443 µM	> 100 µM	0.042 µM	> 100 µM	0.494 µM	41.7 µM	0.0204 µM	1.62 µM	0.0449 µM	> 100 µM	0.141 µM	7.63 µM	< 0.0167 µM	–
CC(=O)/C=C/c1cn(C(=O)OC(C)(C)C)c2ccc(Br)cc12	15.9 µM	39.5 µM	18.9 µM	43.8 µM	22.1 µM	42.5 µM	14.1 µM	45.1 µM	10.7 µM	25.2 µM	20.9 µM	54.6 µM	17.9 µM	45.4 µM	19.8 µM	42 µM	13.4 µM	35.8 µM	13.8 µM	29.1 µM
O=C1NC(=O)C(N2C(=O)c3ccccc3C2=O)CC1O (centres undefined)	> 100 µM	> 100 µM	> 100 µM	> 100 µM	> 100 µM	> 100 µM	> 100 µM	> 100 µM	> 100 µM	> 100 µM	> 100 µM	> 100 µM	> 100 µM	> 100 µM	> 100 µM	> 100 µM	> 100 µM	> 100 µM	> 100 µM	> 100 µM
CC1=C2[C@@H](CC1)[C@]1(C)O[C@@](c3ccccc3)(C[C@H]1OC(=O)CO)[C@H]2OC(=O)/C=C/c1ccccc1	24.3 µM	62.4 µM	19.2 µM	49.5 µM	12.5 µM	41.4 µM	16.6 µM	34.5 µM	15.9 µM	32.3 µM	16.8 µM	38.4 µM	0.348 µM	16 µM	17.1 µM	44.9 µM	13.7 µM	29.7 µM	14.8 µM	34.7 µM
COc1ccc2cc1Oc1ccc(cc1)C[C@H]1c3c(cc4c(c3Oc3cc5c(cc3OC)CCN(C)[C@@H]5C2)OCO4)CCN1C	5.42 µM	12.9 µM	1.1 µM	2.87 µM	5.13 µM	11.9 µM	6.23 µM	17.8 µM	0.702 µM	1.52 µM	4.13 µM	11.2 µM	6.02 µM	15.9 µM	5.44 µM	13.5 µM	1.3 µM	11.8 µM	4.83 µM	13.2 µM
O=S(=O)(c1ccc(Cl)cc1)C(Cl)(Cl)Cl	3.08 µM	23.5 µM	3.85 µM	23 µM	0.251 µM	0.879 µM	2.09 µM	10 µM	1.77 µM	6.58 µM	3.05 µM	19.9 µM	1.57 µM	> 24.5 µM	2.69 µM	17.7 µM	1.71 µM	23.2 µM	3.27 µM	13.9 µM
O=C(O)CN1CCN(CC(=O)O)CC(=O)[O][Hg][O]C(=O)C1	7.29 µM	28.4 µM	19.6 µM	35.3 µM	21.5 µM	36.4 µM	27.8 µM	> 61.9 µM	10.3 µM	26.7 µM	15.5 µM	29.6 µM	30.5 µM	> 81.3 µM	21.2 µM	47.2 µM	20.6 µM	37.8 µM	> 100 µM	> 100 µM
COc1ccc2c(c1)N(CCO)C1=C(C(=O)OC1)C2c1cccc(F)c1 (centres undefined)	0.433 µM	> 50 µM	1.1 µM	> 19.3 µM	0.393 µM	> 50 µM	1.24 µM	> 38.6 µM	0.454 µM	> 50 µM	0.801 µM	> 36.2 µM	0.297 µM	> 21.4 µM	1.8 µM	> 50 µM	0.525 µM	> 23.3 µM	0.255 µM	> 50 µM
O=C1CCC(N2Cc3cc(CNC(=O)C(F)(F)c4ccc(Cl)cc4)ccc3C2=O)C(=O)N1 (centres undefined)	1.78 µM	> 100 µM	0.0679 µM	> 100 µM	40.5 µM	> 100 µM	> 100 µM	> 100 µM	> 100 µM	> 100 µM	> 100 µM	> 100 µM	29.2 µM	> 100 µM	> 100 µM	> 100 µM	0.0741 µM	> 100 µM	67.1 µM	> 100 µM
COc1ccc(-c2[nH]c3ccccc3c2-c2ccc(OC)cc2)cc1	11.2 µM	27.5 µM	4.69 µM	23.5 µM	3.67 µM	17.1 µM	3.58 µM	11.4 µM	3.77 µM	14.8 µM	8.31 µM	25.6 µM	3.82 µM	15 µM	6.26 µM	26.2 µM	2.24 µM	9.4 µM	2.48 µM	6.64 µM
CC(C)C[C@H](NC(=O)CNC(=O)c1cc(Cl)ccc1Cl)B1OC(=O)CC(CC(=O)O)(C(=O)O)O1 (some centres undefined)	0.231 µM	> 41.8 µM	0.0532 µM	0.485 µM	0.041 µM	4.48 µM	0.0804 µM	14.8 µM	0.0325 µM	0.12 µM	0.0399 µM	0.239 µM	0.368 µM	> 100 µM	0.048 µM	6.44 µM	0.0219 µM	0.173 µM	0.105 µM	0.607 µM
CCc1ccc2c(c1)N(CCO)C1=C(C(=O)OC1)C2c1cccc(Br)c1 (centres undefined)	2.56 µM	25.9 µM	2.43 µM	15.7 µM	0.711 µM	23 µM	0.658 µM	11.3 µM	0.663 µM	17.2 µM	0.3 µM	7.14 µM	0.278 µM	2.21 µM	0.66 µM	15.6 µM	3.15 µM	21.5 µM	0.336 µM	12.5 µM
O=C1OC(=O)C(=C\c2ccc3c(c2)OCO3)/C1=C/c1ccc2c(c1)OCO2	–	> 100 µM	–	> 100 µM	–	> 100 µM	–	> 100 µM	–	> 100 µM	–	> 100 µM	–	> 100 µM	–	> 100 µM	–	> 100 µM	–	> 100 µM
CN1C(=O)N(C)C2C1NN=c1s/c(=C\c3ccc(C(F)(F)F)cc3)c(=O)n12 (centres undefined)	2.65 µM	> 100 µM	2.29 µM	14 µM	3.39 µM	> 100 µM	2.96 µM	> 100 µM	0.854 µM	> 100 µM	2.59 µM	24.1 µM	0.696 µM	37.3 µM	2.49 µM	> 100 µM	0.433 µM	57.9 µM	0.705 µM	> 100 µM
CCCN(CCS(C)(=O)=O)Cc1ccc(-c2ccc3ncnc(Nc4ccc(OCc5cccc(F)c5)c(Cl)c4)c3c2)o1	16.5 µM	> 25 µM	> 25 µM	> 25 µM	0.997 µM	> 25 µM	> 22.4 µM	> 25 µM	> 25 µM	> 25 µM	> 25 µM	> 25 µM	12 µM	> 25 µM	> 25 µM	> 25 µM	> 25 µM	> 25 µM	> 25 µM	> 25 µM
Cc1ccc(/C=N\NC(=O)c2[nH]c3ccc(F)cc3c2-c2ccccc2)cc1	0.0336 µM	10.7 µM	0.0283 µM	0.129 µM	0.0344 µM	12.5 µM	0.0251 µM	0.0622 µM	0.0339 µM	> 100 µM	0.0488 µM	24.5 µM	0.0238 µM	1.91 µM	0.0374 µM	> 43.8 µM	0.0363 µM	50.3 µM	0.0282 µM	0.898 µM
O=C(/C=C/c1ccccc1)CCN1CCOCC1	–	27.1 µM	–	35.1 µM	–	16.4 µM	–	40.4 µM	–	24.8 µM	–	44.5 µM	–	55.5 µM	–	31.8 µM	–	38.1 µM	–	18.6 µM
CNCCCNCCCCNCCCN1C(=O)c2ccc3c4c(ccc(c24)C1=O)C(=O)N(CCCNCc1ccccc1OC)C3=O	3.02 µM	19 µM	4.63 µM	70.2 µM	2.25 µM	24.4 µM	5.09 µM	17.3 µM	3.03 µM	14 µM	4.46 µM	18.8 µM	7.09 µM	> 100 µM	2.99 µM	19.1 µM	2.21 µM	18.9 µM	2.75 µM	17.4 µM
CN1CCN(C(=O)c2cc(-c3ccc4ncnc(N5CCc6cc(F)c(Cl)cc65)c4c3)cnc2N)CC1	0.0467 µM	0.595 µM	0.444 µM	3.12 µM	0.165 µM	1.21 µM	0.214 µM	11.3 µM	0.192 µM	1.44 µM	0.238 µM	1.02 µM	0.723 µM	10.2 µM	0.31 µM	5.66 µM	0.154 µM	1.08 µM	0.312 µM	1.83 µM
O=C(/C=C\c1cccc([N+](=O)[O-])c1)/C=C/c1cccc([N+](=O)[O-])c1	2.44 µM	6.3 µM	14.4 µM	> 100 µM	4.4 µM	> 100 µM	3.49 µM	56 µM	1.73 µM	4.56 µM	19.5 µM	49.4 µM	20.2 µM	> 100 µM	4.43 µM	> 100 µM	9.92 µM	43.9 µM	1.73 µM	3.3 µM
COc1ccc(-c2cc(-c3ccc(C)cc3)nc3nc(=S)[nH]c(N)c23)cc1	28.2 µM	78.4 µM	19.5 µM	48.3 µM	23.2 µM	54.2 µM	26.3 µM	75.5 µM	17.7 µM	34.5 µM	19 µM	41 µM	32.2 µM	> 100 µM	21.9 µM	60.2 µM	15.5 µM	75.5 µM	16.2 µM	36 µM
O=C1OCC2=C1C(c1ccc(Cl)c(Cl)c1)c1cc3c(cc1N2CCO)OCCO3 (centres undefined)	0.542 µM	> 33 µM	0.833 µM	7.59 µM	0.277 µM	> 35.5 µM	0.211 µM	6.53 µM	0.316 µM	10.8 µM	0.137 µM	1.11 µM	0.239 µM	3 µM	0.279 µM	21.7 µM	0.236 µM	8.2 µM	0.172 µM	7.58 µM
O=C1/C(=C/c2ccccc2[N+](=O)[O-])Cc2ccccc21	1.25 µM	8.59 µM	1.7 µM	6.2 µM	3.13 µM	> 100 µM	1.86 µM	3.51 µM	1.88 µM	4.39 µM	5.39 µM	19.7 µM	3.35 µM	40.6 µM	2.2 µM	7 µM	1.22 µM	3.36 µM	3.97 µM	15.7 µM
CN[C@@H](C)C(=O)N[C@H](C(=O)N1CCC[C@H]1C(=O)Nc1sc(-c2ncco2)nc1-c1ccccc1)C1CCCCC1	47.5 µM	> 100 µM	0.425 µM	17.2 µM	51.8 µM	> 100 µM	> 95.8 µM	> 100 µM	18.5 µM	34.8 µM	16.3 µM	> 100 µM	27.4 µM	> 83.2 µM	25.8 µM	> 100 µM	3.52 µM	13.4 µM	43.3 µM	> 100 µM
CC(=O)OC12C=C(C)C(C(C)C1)C1C(=O)N(CCN3CCOCC3)C(=O)C12 (centres undefined)	> 100 µM	> 100 µM	> 100 µM	> 100 µM	> 100 µM	> 100 µM	> 100 µM	> 100 µM	> 100 µM	> 100 µM	> 100 µM	> 100 µM	> 100 µM	> 100 µM	> 100 µM	> 100 µM	> 100 µM	> 100 µM	> 100 µM	> 100 µM
